Data as given in patent US20150175530A1, “ANTIBACTERIAL AGENTS” (priority 2012, published 2015).
≈ marks a conversion by molar mass, not a printed value. Like-named read-outs stand apart in the source and are kept apart here.

Assays:
[1] = system: bacterial isolates (clinical isolates and ATCC quality control strains); test: Minimum Inhibitory Concentrations (MICs) by broth microdilution (CLSI susceptibility testing); assay type: cell-based; settings: for Minimum Inhibitory Concentrations (MICs) APAE001: APAE001 is Pseudomonas aeruginosa ATCC27853
Method: Bacterial isolates were cultivated from −70° C. frozen stocks by overnight passages at 35° C. in ambient air on Mueller-Hinton agar (Beckton Dickinson, Franklin Lakes, N.J.). Clinical isolates tested were obtained from various geographically diverse hospitals in the US and abroad (Focus Diagnostics, Herndon, Va. and JMI, North Liberty, Iowa). Quality control strains were from the American Type Culture Collection (ATCC; Rockville, Md.).
Minimum Inhibitory Concentrations (MICs) were determined by the broth microdilution method in accordance with the Clinical and Laboratory Standards Institute (CLSI) guidelines. In brief, organism suspensions were adjusted to a 0.5 McFarland standard to yield a final inoculum between 3×10^5 and 7×10^5 colony-forming units (CFU)/mL. Drug dilutions and inocula were made in sterile, cation adjusted Mueller-Hinton Broth (Beckton Dickinson). An inoculum volume of 100 μL was added to wells containing 100 μL of broth with 2-fold serial dilutions of drug. All inoculated microdilution trays were incubated in ambient air at 35° C. for 18-24 h. Following incubation, the lowest concentration of the drug that prevented visible growth (OD600 nm<0.05) was recorded as the MIC. Performance of the assay was monitored by the use of laboratory quality-control strains and levofloxacin, a compound with a defined MIC spectrum, in accordance with CLSI guidelines.

[2] = system: 3 P. aeruginosa strains (APAE001, APAE002, APAE006); test: Protein binding: fold change in MIC in the presence of 2% HSA and 0.05% AGP, Geomean of 3 strains; assay type: cell-based, Pseudomonas aeruginosa; settings: MIC in the presence of 2% HSA and 0.05% AGP divided by MIC in the absence; Geomean of 3 P. aeruginosa strains (APAE001, APAE002, APAE006)
Method: The effect of human serum albumin (HSA) and α-1-acid glycoprotein (AGP) from human plasma, which are known to nonspecifically bind to certain antibiotics and thereby reduce their activity (Banéres-Roquet et al. 2009 “Use of a Surface Plasmon Resonance Method to Investigate Antibiotic and Plasma Protein Interactions” Antimicrob. Agents and Chemother. 53(4):1528-1531), was assessed against 3 P. aeruginosa strains (APAE001, APAE002, APAE006). APAE001 is Pseudomonas aeruginosa ATCC27853; APAE002 is a wildtype lab strain of Pseudomonas aeruginosa known as PAM1020 or PA01. APAE006 is a strain of […]/PA01 with efflux deletions: delta mexAB-oprM::CM delta CD-oprJ::Gm delta mexEF-oprN::omega Hg. Lomovskaya, 0 et al. 1999. Use of a Genetic Approach To Evaluate the Consequences of Inhibition of Efflux Pumps in P aeruginosa. Antimicrob. Agents Chemother. 43: 1340-1346.
The standard procedure described in Susceptibility Testing was utilized with one adjustment, specifically 2% HSA and 0.05% AGP were added to the cation adjusted Mueller-Hinton Broth. The MIC for each strain of interest was then assessed in the presence and absence of HSA/AGP. Following MIC determination, the fold change in MIC was determined for each individual strain by dividing the MIC in the presence of HSA/AGP by the MIC in the absence of HSA/AGP. The protein binding Geomean was then calculated using these 3 values.

[3] = APAE1096 is a clinical isolate, broth microdilution, read-out: Minimum Inhibitory Concentrations (MICs) APAE1096
[4] = Pseudomonas aeruginosa, APAE002 is a wildtype lab strain of Pseudomonas aeruginosa known as PAM1020 or PA01, broth microdilution, read-out: Minimum Inhibitory Concentrations (MICs) APAE002
[5] = Pseudomonas aeruginosa, ATCC27853, APAE001 is Pseudomonas aeruginosa ATCC27853, broth microdilution, read-out: Minimum Inhibitory Concentrations (MICs) APAE001
[6] = APAE1096 is a clinical isolate, broth microdilution
[7] = APAE002 is a wildtype lab strain of Pseudomonas aeruginosa known as PAM1020 or PA01, broth microdilution
[8] = Pseudomonas aeruginosa, ATCC27853, read-out: Minimum Inhibitory Concentrations (MICs) APAE001
[9] = Pseudomonas aeruginosa, read-out: Minimum Inhibitory Concentrations (MICs) APAE002
[10] = read-out: Minimum Inhibitory Concentrations (MICs) APAE1096

Structure (SMILES) | MIC [1, 3] | MIC [1, 4] | MIC [1, 5] | Protein Binding PB (Geomean of fold change in MIC) [2] | Minimum Inhibitory Concentrations (MICs) APAE1096 [1, 6] | Minimum Inhibitory Concentrations (MICs) APAE001 ([1]; broth microdilution) | Minimum Inhibitory Concentrations (MICs) APAE002 [1, 7] | MIC [1, 8] | MIC [1, 9] | MIC [1, 10]
CC(C)(N)[C@H](NC(=O)c1ccc(C#CC#CC2C[C@H]2C(O)CO)cc1)C(=O)NO (mixture of isomers) [Compound 25, N—((S)-3-amino-1-(hydroxyamino)-3-methyl-1-oxobutan-2-yl)-4-((2-(1,2-dihydroxyethyl)cyclopropyl)buta-1,3-diynyl)benzamide] | 1 to 8 µg/mL (≈ 2.5 to 20 µM) | < 1 µg/mL | < 1 µg/mL | 11.5 | – | – | – | – | – | –
CC(C#CC#Cc1ccc(C(=O)N[C@H](C(=O)NO)C(C)(C)N)cc1)C(O)CO (single isomer, unassigned) [Compound 20A] | 8 to 16 µg/mL (≈ 20.6 to 41.3 µM) | 1 to 8 µg/mL (≈ 2.58 to 20.6 µM) | 1 to 8 µg/mL (≈ 2.58 to 20.6 µM) | 2.0 | – | – | – | – | – | –
CC(C#CC#Cc1ccc(C(=O)N[C@H](C(=O)NO)C(C)(C)N)cc1)C(O)CO (single isomer, unassigned) [Compound 20B] | – | – | – | 1.0 | – | – | – | – | – | –
CC(C)(N)[C@H](NC(=O)c1ccc(C#CC#CC2C[C@H](O)[C@@H]2CO)cc1)C(=O)NO (single isomer, unassigned) [Compound 30A] | – | < 1 µg/mL | < 1 µg/mL | 2.5 | C (C = MIC's of greater than 8.0 μg/mL to 16.0 μg/mL) | – | – | – | – | –
CC(C)(N)[C@H](NC(=O)c1ccc(C#CC#CC2CC(O)[C@@H]2CO)cc1)C(=O)NO (single isomer, unassigned) [Compound 30B] | – | – | – | 3.2 | B (B = MIC's of greater than 1.0 μg/mL to 8.0 μg/mL) | A (A = MIC's of 1.0 μg/mL or less) | A (A = MIC's of 1.0 μg/mL or less) | – | – | –
CC(C)(N)[C@H](NC(=O)c1ccc(C#CC#CC2C[C@@H](O)[C@H]2CO)cc1)C(=O)NO (single isomer, unassigned) [Compound 31A] | – | 1 to 8 µg/mL (≈ 2.5 to 20 µM) | 1 to 8 µg/mL (≈ 2.5 to 20 µM) | 2.5 | C (C = MIC's of greater than 8.0 μg/mL to 16.0 μg/mL) | – | – | – | – | –
CC(C)(N)[C@H](NC(=O)c1ccc(C#CC#CC2CC(O)[C@H]2CO)cc1)C(=O)NO (single isomer, unassigned) [Compound 31B] | – | – | – | 3.2 | B (B = MIC's of greater than 1.0 μg/mL to 8.0 μg/mL) | A (A = MIC's of 1.0 μg/mL or less) | A (A = MIC's of 1.0 μg/mL or less) | – | – | –
CC(C)(N)[C@H](NC(=O)c1ccc(C#CC#CCO)cc1)C(=O)NO [Compound 1, (S)—N-(3-amino-1-(hydroxyamino)-3-methyl-1-oxobutan-2-yl)-4-(5-hydroxypenta-1,3-diynyl)benzamide] | – | – | – | 4.1 | – | – | – | < 1 µg/mL | < 1 µg/mL | < 1 µg/mL
CC(C)(N)[C@H](NC(=O)c1ccc(C#CCO)cc1)C(=O)NO [Compound 2, (S)—N-(3-amino-1-(hydroxyamino)-3-methyl-1-oxobutan-2-yl)-4-(3-hydroxyprop-1-ynyl)benzamide] | 8 to 16 µg/mL (≈ 26.2 to 52.4 µM) | 1 to 8 µg/mL (≈ 3.28 to 26.2 µM) | < 1 µg/mL | 1.3 | – | – | – | – | – | –
CC(C)(N)[C@H](NC(=O)c1ccc(C#C/C=C/CO)cc1)C(=O)NO [Compound 3, (S,E)-N-(3-amino-1-(hydroxyamino)-3-methyl-1-oxobutan-2-yl)-4-(5-hydroxypent-3-en-1-ynyl)benzamide] | 1 to 8 µg/mL (≈ 3.02 to 24.1 µM) | < 1 µg/mL | < 1 µg/mL | 1.3 | – | – | – | – | – | –
CC(C)(O)[C@H](NC(=O)c1ccc(C#CC#CCO)cc1)C(=O)NO [Compound 4, (S)—N-(3-hydroxy-1-(hydroxyamino)-3-methyl-1-oxobutan-2-yl)-4-(5-hydroxypenta-1,3-diynyl)benzamide] | 1 to 8 µg/mL (≈ 3.03 to 24.2 µM) | < 1 µg/mL | < 1 µg/mL | – | – | – | – | – | – | –
CNC(C)(C)[C@H](NC(=O)c1ccc(C#CC#CCO)cc1)C(=O)NO [Compound 5, (S)—N-(1-(hydroxyamino)-3-methyl-3-(methylamino)-1-oxobutan-2-yl)-4-(5-hydroxypenta-1,3-diynyl)benzamide] | < 1 µg/mL | < 1 µg/mL | < 1 µg/mL | 1.6 | – | – | – | – | – | –
CC(C)(NCCO)[C@H](NC(=O)c1ccc(C#CC#CCO)cc1)C(=O)NO [Compound 6, (S)—N-(1-(hydroxyamino)-3-(2-hydroxyethylamino)-3-methyl-1-oxobutan-2-yl)-4-(5-hydroxypenta-1,3-diynyl)benzamide] | 1 to 8 µg/mL (≈ 2.68 to 21.4 µM) | < 1 µg/mL | < 1 µg/mL | 2.6 | – | – | – | – | – | –
CC(C)(N)[C@H](NC(=O)c1ccc(C#CC#CCCO)cc1)C(=O)NO [Compound 7, (S)—N-(3-amino-1-(hydroxyamino)-3-methyl-1-oxobutan-2-yl)-4-(6-hydroxyhexa-1,3-diynyl)benzamide] | < 1 µg/mL | < 1 µg/mL | < 1 µg/mL | 2.5 | – | – | – | – | – | –
CC(C)(N)[C@H](NC(=O)c1ccc(C#CCCO)cc1)C(=O)NO [Compound 8, (S)—N-(3-amino-1-(hydroxyamino)-3-methyl-1-oxobutan-2-yl)-4-(4-hydroxybut-1-ynyl)benzamide] | 8 to 16 µg/mL (≈ 25.1 to 50.1 µM) | 1 to 8 µg/mL (≈ 3.13 to 25.1 µM) | 1 to 8 µg/mL (≈ 3.13 to 25.1 µM) | 0.9 | – | – | – | – | – | –
CNC(C)(C)[C@H](NC(=O)c1ccc(C#CC#CCCO)cc1)C(=O)NO [Compound 9, (S)—N-(1-(hydroxyamino)-3-methyl-3-(methylamino)-1-oxobutan-2-yl)-4-(6-hydroxyhexa-1,3-diynyl)benzamide] | – | – | – | 1.5 | – | – | – | < 1 µg/mL | < 1 µg/mL | < 1 µg/mL
CCNC(C)(C)[C@H](NC(=O)c1ccc(C#CC#CCCO)cc1)C(=O)NO [Compound 10, (S)—N-(3-(ethylamino)-1-(hydroxyamino)-3-methyl-1-oxobutan-2-yl)-4-(6-hydroxyhexa-1,3-diynyl)benzamide] | – | – | – | 2.2 | – | – | – | < 1 µg/mL | < 1 µg/mL | < 1 µg/mL
CC(C)(N)[C@H](NC(=O)c1ccc(C#CC#CC(O)CCO)cc1)C(=O)NO (stereo partly drawn) [Compound 46, N—((S)-3-amino-1-(hydroxyamino)-3-methyl-1-oxobutan-2-yl)-4-(5,7-dihydroxyhepta-1,3-diyn-1-yl)benzamide] | 1 to 8 µg/mL (≈ 2.68 to 21.4 µM) | < 1 µg/mL | < 1 µg/mL | – | – | – | – | – | – | –
CC(C)(O)[C@H](NC(=O)c1ccc(C#CC#CC(O)CO)cc1)C(=O)NO (stereo partly drawn) [Compound 60, 4-(5,6-dihydroxyhexa-1,3-diyn-1-yl)-N—((S)-3-hydroxy-1-(hydroxyamino)-3-methyl-1-oxobutan-2-yl)benzamide] | – | – | 1 to 8 µg/mL (≈ 2.77 to 22.2 µM) | – | – | – | – | – | – | –
